From patent publication US20110251203A1, “USE OF PKC INHIBITORS IN DIABETIC COMPLICATIONS” (priority 2006, published 2011)

The compounds below were run on transgenic (mRen-2)27 rats (assay: Streptozotocin-diabetic Ren-2 rat model of diabetic complications). Conditions: administered i.v. at a dose of from 0.1 to 10 mg/kg.
Assay type: in vivo
Experimental: Ren-2 rats (e.g. as disclosed in D. J. Kelly et al, Kidney Int, Vol 54, 1998, p343-352)
The effect of Compound A, B or C, on diabetic complications is tested in transgenic (mRen-2)27 rats (also called “Ren-2 rats”), model that develops hypertension and many of the structural and functional characteristics of human diabetic nephropathy when diabetes is induced by streptozotocin, resulting in a progressive disease with many of the structural, functional and molecular characteristics of human diabetic nephropathy. The progression of this disease is associated with an increase in renal and cardiac growth factors and extra cellular matrix accumulation.
The effect of the compounds of the invention on diabetic nephropathy may be studied with the Ren-2 rats model, as disclosed in D. J. Kelly et al, Diabetes, Vol 52, February 2003, p512-518: Diabetes is induced by injection of streptozotocin, 55 mg/kg. All diabetic rats receive insulin (human isophane) 2 units/day to promote body weight and reduce mortality. The experimental period continues for 16 weeks in Ren-2 rats to study advanced renal and cardiac disease. Rats are randomised to the following groups:
Group 1: non-diabetic Ren-2, no drug Group 2: non-diabetic Ren2, Compound C Group 3: non-diabetic Ren-2, Compound A Group 4: diabetic Ren-2 Group 5: diabetic Ren-2, drug Compound C, dose 1 Group 6: diabetic Ren-2, drug Compound A, dose 1 Group 7: diabetic Ren-2, drug Compound C, dose 2 Group 8: diabetic Ren-2, drug Compound A, dose 2 N=20 per group (160 rats) […]
The spatial distribution and quantitation of the immunohistochemistry by image analysis provide specific information regarding the cell type and location of disease progression. […]
The right kidney is snap frozen in liquid nitrogen and used for molecular biological experiments. Tissue and cell specific changes in expression may be quantifyed using immunohistochemistry with quantitative image analysis and real time PCR (ABI Prism 7700, Perkin Elmer Biosystems, Foster City, Calif.) with TaqMan, Such a PCR analysis is a technique well known by the one skilled in the art.
In the case of `CN1CCN(c2nc(C3=C(c4c[nH]c5ccccc45)C(=O)NC3=O)c3ccccc3n2)CC1` [Compound A, 3-(1.H.-indol-3-yl)-4-[2-(4-methyl-piperazin-1-yl)-quinazolin-4-yl]-pyrrole-2,5-dione], the “effect on the diabetic complications” value is reported as “beneficial effect”. `O=C1NC(=O)C(c2c[nH]c3ccccc23)=C1c1nc(N2CCNCC2)nc2ccccc12` [Compound B, 3-(1.H.-indol-3-yl)-4-[2-(piperazin-1-yl)-quinazolin-4-yl]-pyrrole-2,5-dione] was tested, and the “effect on the diabetic complications” value was “beneficial effect”. With `Cc1cccc2c(C3=C(c4nc(N5CCNC6(CC6)C5)cc5ccccc45)C(=O)NC3=O)c[nH]c12` [Compound C, 3-[3-(4,7-Diaza-spiro[2,5]oct-7-yl)-isoquinolin-1-yl]-4-(7-methyl-1H-indol-3-yl)-pyrrole-2,5-dione] the “effect on the diabetic complications” value was “beneficial effect”.
